Measured values taken from ChEMBL document CHEMBL5126512, “Current status of carbazole hybrids as anticancer agents” (Eur J Med Chem, 2022).
Blank lines part the entries; values can stand above or below the compound they belong to.

Columns and labels:
[1] = Potency index, ratio of cisplatin IC50 to compound IC50 for anticancer activity against cisplatin/camptothecin resistant human CLS-354 cells by MTT assay; assay type: functional
[2] = Anticancer activity against human CLS-354 cells assessed as cell growth inhibition measured after 24 hrs by MTT assay; assay type: functional, cell-based; conditions: CLS-354, 24 h
[3] = Anticancer activity against cisplatin/camptothecin resistant human CLS-354 cells assessed as cell growth inhibition measured after 24 hrs by MTT assay; assay type: functional, cell-based; conditions: CLS-354, 24 h
[4] = system: MCF7; assay: Antiproliferative activity against human MCF7 cells assessed as cell growth inhibition measured after 48 hrs by MTT assay; assay type: functional, cell-based; conditions: MCF7, 48 h
[5] = system: A549; assay: Antiproliferative activity against human A549 cells assessed as cell growth inhibition measured after 48 hrs by MTT assay; assay type: functional, cell-based; conditions: A549, 48 h
[6] = system: AGS; assay: Antiproliferative activity against human AGS cells assessed as cell growth inhibition measured after 72 hrs by MTT assay; assay type: functional, cell-based
[7] = system: SGC-7901; assay: Antiproliferative activity against human SGC-7901 cells assessed as cell growth inhibition measured after 72 hrs by MTT assay; assay type: functional, cell-based; conditions: SGC-7901, 72 h

SMILES: CC(C)=CCC[C@@]1(C)C=Cc2c(ccc3c2[nH]c2cc(O)c(C)cc23)O1
- Ratio IC50 [1]: 2.1
- IC50 [2]: 14.4 µM
- IC50 [3]: 16 µM

- IC50 [4]: 5.48 µM
- IC50 [5]: 5.04 µM
SMILES: Cn1c2ccccc2c2cc(C3NCCc4c3[nH]c3ccccc43)ccc21 (configuration not stated)

- IC50 [6]: 0.4 µM
- IC50 [7]: 1.5 µM
SMILES: N=C(N)N/N=C/c1ccc2c(c1)c1ccccc1n2Cc1ccccc1F
